From patent US12679878B2, “CRF2 receptor agonists and their use in therapy” (SANOFI, priority 2020, dated 2026)
Where two headings read alike, the source gives them in different places. Starred links: 1 amine or outer side, 2 acyl side, 3 side chain; linkers in the order of their positions; H or OH if unused. Residues, ends and D or L forms follow the SMILES beside them. Groups on a side chain read outwards from the residue. *: point of attachment. C18 diacid = O=C(O)CCCCCCCCCCCCCCCCC(=O)*; γGlu = O=C(O)[C@H](CCC(=O)[*:2])N[*:1]; Palmitoyl = CCCCCCCCCCCCCCCC(=O)*; AEEA = NCCOCCOCC(=O)O

Assays:
human CRF2α receptor = target: T1, human CRF2α receptor (Homo sapiens, UniProt Q13324); experiment: cAMP agonism at human CRF2 α receptor in TeloHEAC cells (Example 7); assay type: cell-based; settings: cAMP HTRF, TeloHEAC cells stably expressing human CRF2 α
T1 construct: expressed in transfected cells; host or cells: TeloHEAC
T1 sequence (Q13324 1-411): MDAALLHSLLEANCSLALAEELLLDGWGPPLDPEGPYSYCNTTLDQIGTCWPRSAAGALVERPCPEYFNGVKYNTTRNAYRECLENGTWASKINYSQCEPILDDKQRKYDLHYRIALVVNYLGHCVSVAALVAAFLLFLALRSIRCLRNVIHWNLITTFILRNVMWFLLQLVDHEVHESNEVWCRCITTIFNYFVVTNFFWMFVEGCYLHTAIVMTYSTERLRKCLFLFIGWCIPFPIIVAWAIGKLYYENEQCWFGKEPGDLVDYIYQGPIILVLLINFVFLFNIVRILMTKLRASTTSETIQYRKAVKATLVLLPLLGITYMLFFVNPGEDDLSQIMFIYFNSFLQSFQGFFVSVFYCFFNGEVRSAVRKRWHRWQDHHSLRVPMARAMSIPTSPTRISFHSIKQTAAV
Method in brief: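 Thawed frozen stably transfected cells in HBSS/20 mM HEPES (0% or 0.1% HSA) plus 2 mM IBMX were exposed to compound at 2000 cells/well for 30 min at room temperature. Intracellular cAMP was read by HTRF (665/620 nm ratio) after 1 h lysis; EC50 was derived with 1000 nM urocortin 2 set as 100%.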

[1] = Solubility in buffer systems by UPLC-UV (Example 13); assay type: physicochemical
Method in brief: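 The supernatant was diluted 1:10 and quantified by UPLC-UV peak area against a reference standard curve, correcting for sequence-based extinction coefficients.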

recombinant human CRF2 = target: T2, recombinant human CRF2 (Homo sapiens, UniProt Q13324); experiment: CRF2a (h) agonist radioligand binding, [125]sauvagine, HEK cell membranes (Example 11); settings: for nH (Hill coefficient): competition with [125]sauvagine 0.1 nM
T2 construct: expressed in transfected cells; host or cells: HEK
T2 sequence (Q13324 1-411): T1 sequence (Q13324 1-411)
Description: Receptor binding of the compounds was assessed using a CRF2a (h) (agonist radioligand) assay.
HEK cells expressing recombinant human CRF2 were used as a source of receptor for membrane preparation.
IC50 values (concentration causing a half-maximal inhibition of control specific binding) and Hill coefficients (nH) were determined by non-linear regression analysis of the competition curves generated with mean replicate values using Hill equation curve fitting. The inhibition constants (Ki) were calculated using the Cheng Prusoff equation [Ki=IC50/(1+L/KD) where L is the concentration of radioligand in the assay, and KD is the affinity of the radioligand for the receptor). A Scatchard plot was used to determine the KD.

CRF1R receptor = target: T3, CRF1R receptor (Homo sapiens, UniProt P34998); experiment: cAMP activity at anti-target CRF1R, CRF1R-overexpression CHO cell line (Example 9); assay type: cell-based
T3 construct: host or cells: CHO-K1 clone 2
T3 sequence (P34998 24-415): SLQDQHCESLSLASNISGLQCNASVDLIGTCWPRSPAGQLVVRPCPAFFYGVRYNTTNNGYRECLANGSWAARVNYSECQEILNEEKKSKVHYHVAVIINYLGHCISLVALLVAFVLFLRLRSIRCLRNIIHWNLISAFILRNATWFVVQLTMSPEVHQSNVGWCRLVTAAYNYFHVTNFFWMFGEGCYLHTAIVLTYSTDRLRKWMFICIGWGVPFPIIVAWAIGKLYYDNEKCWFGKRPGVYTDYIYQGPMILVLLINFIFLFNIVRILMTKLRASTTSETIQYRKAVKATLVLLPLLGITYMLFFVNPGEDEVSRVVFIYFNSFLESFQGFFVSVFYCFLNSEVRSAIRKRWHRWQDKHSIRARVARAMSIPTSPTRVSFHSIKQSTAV
Method in brief: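 cAMP accumulation was read by HTRF after 30 min at room temperature of compound treatment. Cells were cryopreserved CHO cells overexpressing CRF1R, plated at 2000/well in IBMX (2 mM)-containing HBSS/HEPES buffer with 0 or 0.1% HSA. Activity was normalized to 1000 nM UCN2 as 100%.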

rat CRF2R α receptor = experiment: cAMP agonism at rat CRF2R α receptor in A7R5 rat aortic smooth muscle cells (Example 8); assay type: cell-based; settings: cAMP HTRF, A7R5 rat aortic smooth muscle cell line, 0% HSA
Method in brief: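 Thawed cryopreserved A7R5 cells in HBSS/20 mM HEPES (0 or 0.1% HSA) with 2 mM IBMX, 2000 cells/well, were exposed to compound for 30 min at room temperature. cAMP was read by HTRF (665/620 nm ratio) after 1 h with lysis reagents. Activity was normalised to 1000 nM urocortin 2 as 100%, and EC50 was taken as the concentration giving 50% of maximal activation.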

[2] = Chemical stability, purity loss by UPLC-UV after 28 days at 40° C. vs 5° C., pH 4.5 acetate buffer (Example 12); assay type: physicochemical; settings: 28 days 40° C. vs 5° C.; pH 4.5, 20 mM acetate buffer; 300 μM
Method in brief: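 300 μM compound (purity-corrected) in 20 mM acetate buffer, pH 4.5, stored 28 days at 5 and 40° C. Purity by UPLC-UV as compound peak area over total peak area. Value is the purity difference between 5° C. and 40° C. samples, relative to the 5° C. purity, in percent.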

[3] = 0% HSA, read-out: EC50 [nM], 0% HSA
[4] = pH 7.4, Solubility in Buffer C [mg/ml]

EC50 (human CRF2α receptor; [3]) | solubility at 1 h [1, 4] | nH (Hill coefficient) (recombinant human CRF2) | Relative purity loss [%] [2] | solubility at 1 h ([1]; pH 4.5, Solubility in Buffer B [mg/ml]) | EC50 (CRF1R receptor; 0% HSA, CRF1R-overexpression CHO cell line) | Emax (CRF1R receptor; CRF1R-overexpression CHO cell line, read-out: Emax (%)) | Structure (SMILES) | EC50 (human CRF2α receptor; 0.1% HSA, read-out: EC50 [nM], 0.1% HSA) | solubility at 1 h ([1]; Buffer B: 100 mM acetate buffer, pH 4.5, 2.7 mg/ml m-cresol, target 10 mg/ml, read-out: Solubility in Buffer B) | solubility at 1 h ([1]; Buffer C: 100 mM phosphate buffer, pH 7.4, target 10 mg/ml, read-out: Solubility in Buffer C) | Emax (CRF1R receptor; CHO) | Ki (recombinant human CRF2) | EC50 (rat CRF2R α receptor)
0.02 nM | > 10700 µg/mL | 1.5 |  |  |  |  | CCCCCCCCCCCCCCCC(=O)N[C@@H](CCC(=O)NCCCC[C@H](NC(=O)[C@H](CC(C)C)NC(=O)[C@H](CCCCN)NC(=O)[C@@H](NC(=O)[C@@H]1CCCN1C(=O)[C@@H](NC(=O)[C@H](CC(=O)O)NC(=O)[C@H](CC(C)C)NC(=O)[C@H](CO)NC(=O)[C@H](CC(C)C)NC(=O)[C@@H](NC(=O)[C@@H](N)[C@@H](C)CC)C(C)C)C(C)C)[C@@H](C)CC)C(=O)N[C@@H](CCCCN)C(=O)N[C@H](C(=O)N[C@@H](CC(C)C)C(=O)N[C@@H](CC(C)C)C(=O)N[C@@H](CCC(=O)O)C(=O)N[C@@H](CCC(N)=O)C(=O)N[C@@H](CCC(=O)O)C(=O)N[C@@H](CCCCN)C(=O)N[C@@H](CCC(N)=O)C(=O)N[C@@H](CCCCN)C(=O)N[C@@H](CCCCN)C(=O)N[C@@H](CCC(N)=O)C(=O)N[C@@H](CCCNC(=N)N)C(=O)N[C@@H](CCC(=O)O)C(=O)N[C@@H](CCC(N)=O)C(=O)N[C@@H](C)C(=O)N[C@@H](CCC(=O)O)C(=O)N[C@H](C(=O)N[C@@H](CC(N)=O)C(=O)N[C@@H](CCCCN)C(=O)N[C@@H](CCC(N)=O)C(=O)N[C@H](C(=O)N[C@@H](CC(C)C)C(=O)N[C@@H](C)C(=O)N[C@@H](CCC(N)=O)C(=O)N[C@H](C(N)=O)C(C)C)[C@@H](C)CC)[C@@H](C)O)[C@@H](C)CC)C(=O)O [compound 17] (H-IVLSLDVPIKLK([γGlu-Palmitoyl])KILLEQEKQKKQREQAETNKQILAQV-NH2; N-terminus assumed) |  |  |  |  |  | 
0.2 nM | > 8900 µg/mL | 0.8 | 6.00% | > 9800 µg/mL | > 1000 nM | 12.3% | CC[C@H](C)[C@H](N)C(=O)N[C@H](C(=O)N[C@@H](CC(C)C)C(=O)N[C@@H](CO)C(=O)N[C@@H](CC(C)C)C(=O)N[C@@H](CC(=O)O)C(=O)N[C@H](C(=O)N1CCC[C@H]1C(=O)N[C@H](C(=O)N[C@@H](CCCCN)C(=O)N[C@@H](CC(C)C)C(=O)N[C@@H](CCCCNC(=O)COCCOCCNC(=O)COCCOCCNC(=O)CC[C@H](NC(=O)CCCCCCCCCCCCCCCCC(=O)O)C(=O)O)C(=O)N[C@@H](CCC(N)=O)C(=O)N[C@H](C(=O)N[C@@H](CC(C)C)C(=O)N[C@@H](CC(C)C)C(=O)N[C@@H](CCC(=O)O)C(=O)N[C@@H](CCC(N)=O)C(=O)N[C@@H](CCC(=O)O)C(=O)N[C@@H](CCCNC(=N)N)C(=O)N[C@@H](CCC(N)=O)C(=O)N[C@@H](CCCCN)C(=O)N[C@@H](CCCCN)C(=O)N[C@@H](CCC(N)=O)C(=O)N[C@@H](CCCNC(=N)N)C(=O)N[C@@H](CCC(=O)O)C(=O)N[C@@H](CCC(N)=O)C(=O)N[C@@H](C)C(=O)N[C@@H](CCC(=O)O)C(=O)N[C@H](C(=O)N[C@@H](CC(N)=O)C(=O)N[C@@H](CCCCN)C(=O)N[C@@H](CCC(N)=O)C(=O)N[C@H](C(=O)N[C@@H](CC(C)C)C(=O)N[C@@H](C)C(=O)N[C@@H](CCC(N)=O)C(=O)N[C@H](C(N)=O)C(C)C)[C@@H](C)CC)[C@@H](C)O)[C@@H](C)CC)[C@@H](C)CC)C(C)C)C(C)C [compound 68] (H-IVLSLDVPIKLK([AEEA-AEEA-γGlu-C18 diacid])QILLEQERQKKQREQAETNKQILAQV-NH2; N-terminus assumed) |  |  |  |  |  | 1.74 nM

Structure (SMILES) | EC50 (human CRF2α receptor; [3]) | solubility at 1 h [1, 4] | nH (Hill coefficient) (recombinant human CRF2) | Relative purity loss [%] [2] | solubility at 1 h ([1]; pH 4.5, Solubility in Buffer B [mg/ml]) | EC50 (CRF1R receptor; 0% HSA, CRF1R-overexpression CHO cell line) | Emax (CRF1R receptor; CRF1R-overexpression CHO cell line, read-out: Emax (%)) | EC50 (human CRF2α receptor; 0.1% HSA, read-out: EC50 [nM], 0.1% HSA) | solubility at 1 h ([1]; Buffer B: 100 mM acetate buffer, pH 4.5, 2.7 mg/ml m-cresol, target 10 mg/ml, read-out: Solubility in Buffer B) | solubility at 1 h ([1]; Buffer C: 100 mM phosphate buffer, pH 7.4, target 10 mg/ml, read-out: Solubility in Buffer C) | Emax (CRF1R receptor; CHO) | Ki (recombinant human CRF2) | EC50 (rat CRF2R α receptor)
CC[C@H](C)[C@H](NC(=O)[C@H](CCC(N)=O)NC(=O)[C@H](CCC(=O)O)NC(=O)[C@H](CC(C)C)NC(=O)[C@H](CC(C)C)NC(=O)[C@H](CCC(N)=O)NC(=O)[C@H](CCCCN)NC(=O)[C@H](CC(N)=O)NC(=O)[C@H](CCCCN)NC(=O)[C@H](CCC(=O)O)NC(=O)[C@H](C)NC(=O)[C@H](CCC(N)=O)NC(=O)[C@H](CCC(N)=O)NC(=O)[C@H](CCCNC(=N)N)NC(=O)[C@H](CCC(=O)O)NC(=O)[C@H](CCCCN)NC(=O)[C@H](CCCCN)NC(=O)[C@H](CCC(N)=O)NC(=O)[C@H](CCCCN)NC(=O)[C@H](CCC(N)=O)NC(=O)[C@H](CCC(N)=O)NC(=O)[C@H](CCCCN)NC(=O)[C@H](CC(C)C)NC(=O)[C@H](CC(C)C)NC(=O)[C@@H](NC(=O)[C@H](CCC(N)=O)NC(=O)[C@H](CCCCNC(=O)COCCOCCNC(=O)COCCOCCNC(=O)CC[C@H](NC(=O)CCCCCCCCCCCCCCCCC(=O)O)C(=O)O)NC(=O)[C@@H](NC(=O)[C@H](CCCCN)NC(=O)[C@@H](NC(=O)[C@@H]1CCCN1C(=O)[C@@H](NC(=O)[C@H](CC(=O)O)NC(=O)[C@H](CC(C)C)NC(=O)[C@H](CO)NC(=O)[C@H](CC(C)C)NC(=O)[C@@H](NC(=O)[C@@H](N)Cc1ccccc1)[C@@H](C)O)C(C)C)[C@@H](C)O)[C@@H](C)CC)[C@@H](C)CC)C(N)=O [compound 51] (H-FTLSLDVPTKIK([AEEA-AEEA-γGlu-C18 diacid])QILLKQQKQKKERQQAEKNKQLLEQI-NH2; N-terminus assumed) | 0.32 nM |  | 0.8 |  |  |  |  | 21.4 nM | > 8800 µg/mL | > 7700 µg/mL | 3.38% | 4.3 nM | 0.87 nM
